Experimental data reported in ChEMBL document CHEMBL1201862, “PubChem BioAssay data set” (2004).
Active and inactive are the calls of the source.

Tests used:
Hexokinase HKDC1 = target: T1, Hexokinase HKDC1 (Homo sapiens, UniProt Q2TB90); assay: SAR analysis of small molecule inhibitors of hexokinase domain containing I (HKDC1). [Related pubchem assays (depositor defined):AID493160, AID493190]; type: functional
T1 sequence (Q2TB90 whole entry): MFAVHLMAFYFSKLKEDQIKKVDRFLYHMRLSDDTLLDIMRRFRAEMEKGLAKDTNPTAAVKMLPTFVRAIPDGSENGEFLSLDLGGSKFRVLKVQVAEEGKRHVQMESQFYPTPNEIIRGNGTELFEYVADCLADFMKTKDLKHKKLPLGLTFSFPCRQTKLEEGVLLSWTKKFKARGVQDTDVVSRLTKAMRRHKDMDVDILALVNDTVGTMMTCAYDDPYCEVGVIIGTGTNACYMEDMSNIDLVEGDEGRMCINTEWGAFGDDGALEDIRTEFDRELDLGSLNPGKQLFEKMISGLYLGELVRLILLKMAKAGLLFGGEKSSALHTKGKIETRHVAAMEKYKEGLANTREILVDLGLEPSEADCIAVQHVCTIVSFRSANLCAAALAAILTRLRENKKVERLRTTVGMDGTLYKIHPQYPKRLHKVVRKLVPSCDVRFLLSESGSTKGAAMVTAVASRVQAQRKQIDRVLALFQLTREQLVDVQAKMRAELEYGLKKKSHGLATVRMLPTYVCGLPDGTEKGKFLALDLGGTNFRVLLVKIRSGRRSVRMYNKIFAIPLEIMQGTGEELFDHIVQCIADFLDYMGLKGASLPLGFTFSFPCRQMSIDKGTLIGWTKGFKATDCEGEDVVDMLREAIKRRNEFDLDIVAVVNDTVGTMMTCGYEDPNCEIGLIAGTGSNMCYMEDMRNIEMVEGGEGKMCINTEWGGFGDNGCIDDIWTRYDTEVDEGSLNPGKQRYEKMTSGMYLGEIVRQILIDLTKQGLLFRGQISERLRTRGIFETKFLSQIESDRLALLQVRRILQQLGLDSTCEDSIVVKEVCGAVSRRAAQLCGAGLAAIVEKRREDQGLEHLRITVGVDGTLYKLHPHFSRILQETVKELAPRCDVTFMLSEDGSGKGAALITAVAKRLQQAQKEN

Hexokinase-1 = target: T2, Hexokinase-1 (Homo sapiens, UniProt P19367); assay: SAR analysis of small molecule inhibitors of hexokinase domain containing I (HKDC1) in the hexokinase 1 selectivity assay. [Related pubchem assays (depositor defined):AID493160, AID493190]; type: functional
T2 sequence (P19367 whole entry): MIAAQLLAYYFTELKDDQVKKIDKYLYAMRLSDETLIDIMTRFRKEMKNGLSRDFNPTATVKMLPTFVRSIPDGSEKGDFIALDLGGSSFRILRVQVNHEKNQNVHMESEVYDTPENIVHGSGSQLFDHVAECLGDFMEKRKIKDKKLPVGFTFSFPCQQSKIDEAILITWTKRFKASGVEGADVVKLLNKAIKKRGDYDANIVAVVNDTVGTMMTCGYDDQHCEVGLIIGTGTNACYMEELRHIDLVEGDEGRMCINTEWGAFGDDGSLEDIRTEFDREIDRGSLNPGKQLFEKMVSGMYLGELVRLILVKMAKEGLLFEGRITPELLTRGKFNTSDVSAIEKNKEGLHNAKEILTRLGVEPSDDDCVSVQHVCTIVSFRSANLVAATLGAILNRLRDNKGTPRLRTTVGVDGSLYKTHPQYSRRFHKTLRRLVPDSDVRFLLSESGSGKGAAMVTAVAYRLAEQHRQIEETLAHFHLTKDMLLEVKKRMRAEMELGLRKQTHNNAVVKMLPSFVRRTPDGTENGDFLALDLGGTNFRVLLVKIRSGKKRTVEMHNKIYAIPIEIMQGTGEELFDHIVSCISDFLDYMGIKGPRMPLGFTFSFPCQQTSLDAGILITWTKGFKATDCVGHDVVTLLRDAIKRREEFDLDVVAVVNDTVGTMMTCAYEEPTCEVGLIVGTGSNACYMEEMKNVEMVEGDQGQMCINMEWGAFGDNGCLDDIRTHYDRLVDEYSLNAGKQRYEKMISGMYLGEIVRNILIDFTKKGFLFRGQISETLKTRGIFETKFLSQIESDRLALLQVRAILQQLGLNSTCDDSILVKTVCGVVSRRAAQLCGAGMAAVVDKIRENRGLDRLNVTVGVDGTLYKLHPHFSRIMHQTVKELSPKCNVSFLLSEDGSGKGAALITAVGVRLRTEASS

BJ [1] = assay: BJ-TERT-LT-ST fibroblast viability loss – cell-based, RAS-independent, luminescence, dose response (AID 1935); type: functional; conditions: Homo sapiens;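 further: BJ fibroblasts immortalized with TERT plus LT and ST oncogenes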
BJ [2] = assay: cells; type: functional, cell-based; conditions: Homo sapiens
BJ [3] = assay: BJ-TERT fibroblast viability loss – cell-based, RAS-independent, luminescence, dose response (AID 1933); type: functional; conditions: Homo sapiens
[4] = DRD fibroblast viability loss – cell-based, non-viral oncogenic, luminescence, dose response (AID 1934); type: functional; conditions: Homo sapiens
BJ [5] = assay: growth inhibition of engineered Ras-driven BJ cells – cell-based, alamar blue fluorescence, cherrypicked samples, dose response (AID 2631); type: functional; conditions: Homo sapiens;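 further: confirmatory dose-response assay in RAS-dependent BJ fibroblasts engineered with TERT, LT and ST, with cytotoxicity read by fluorescence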
[6] = target: T3, Short transient receptor potential channel 4 (Mus musculus, UniProt Q9QUQ5); assay: block of DAMGO-driven TRPC4 calcium entry – cell-based, HEK293 TRPC4/mu-opioid, Fluo-4 calcium, dose response (AID 434942); type: functional;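 further: potency of inhibitors blocking the TRPC4 calcium response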
T3 sequence (Q9QUQ5 whole entry): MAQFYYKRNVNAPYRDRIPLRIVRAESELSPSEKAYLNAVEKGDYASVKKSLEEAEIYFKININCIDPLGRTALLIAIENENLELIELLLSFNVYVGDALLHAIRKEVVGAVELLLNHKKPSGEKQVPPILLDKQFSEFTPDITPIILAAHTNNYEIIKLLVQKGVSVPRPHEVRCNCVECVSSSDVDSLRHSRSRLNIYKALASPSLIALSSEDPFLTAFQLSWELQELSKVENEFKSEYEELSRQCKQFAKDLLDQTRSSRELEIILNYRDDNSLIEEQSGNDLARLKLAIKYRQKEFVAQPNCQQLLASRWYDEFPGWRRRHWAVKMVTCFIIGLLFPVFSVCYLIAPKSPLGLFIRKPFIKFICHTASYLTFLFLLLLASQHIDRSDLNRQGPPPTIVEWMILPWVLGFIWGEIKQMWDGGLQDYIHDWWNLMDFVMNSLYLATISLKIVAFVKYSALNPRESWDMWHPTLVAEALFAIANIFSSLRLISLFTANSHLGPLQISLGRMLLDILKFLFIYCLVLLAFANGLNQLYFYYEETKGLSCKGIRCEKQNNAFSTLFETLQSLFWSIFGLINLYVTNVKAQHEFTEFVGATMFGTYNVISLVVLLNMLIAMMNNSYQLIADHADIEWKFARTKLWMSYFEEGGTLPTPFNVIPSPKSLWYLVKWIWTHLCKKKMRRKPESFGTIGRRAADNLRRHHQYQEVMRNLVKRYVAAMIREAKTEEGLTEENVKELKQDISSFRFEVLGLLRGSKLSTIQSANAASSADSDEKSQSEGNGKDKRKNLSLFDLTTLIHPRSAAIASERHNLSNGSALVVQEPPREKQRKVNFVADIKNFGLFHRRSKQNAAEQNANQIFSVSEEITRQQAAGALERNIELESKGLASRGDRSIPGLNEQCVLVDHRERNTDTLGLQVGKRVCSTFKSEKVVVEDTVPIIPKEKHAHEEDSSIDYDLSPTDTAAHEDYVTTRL

HEK293 [7] = assay: HEK293T cell viability loss, resazurin readout – resazurin fluorescence, cytotoxicity control for NF-kB activator project, SAR follow-up (AID 493251); type: functional, cell-based; conditions: Homo sapiens
HEK293 [8] = assay: SAR Analysis of small molecule inhibitors of T-cell specific antigen receptor-induced NF-kB activation in a HEK-293T cell line using a luminescence assay - Set 2. [Related pubchem assays (depositor defined):AID435003, AID435012, AID489026]; type: functional, cell-based; conditions: Homo sapiens
Jurkat = assay: SAR Analysis of small molecule inhibitors of T-cell specific antigen receptor-induced NF-kB activation in a Jurkat cell line using a luminescence assay - Set 2. [Related pubchem assays (depositor defined):AID435003, AID435012, AID465]; type: functional, cell-based; conditions: Homo sapiens
[9] = target: T4, Endoribonuclease toxin MazF (Escherichia coli K-12, UniProt P0AE70); assay: substrate-only fluorescence increase artefacts – biochemical, single-stranded RNase substrate, counter-screen for MazEF activator project, dose response (AID 588502); type: functional
T4 sequence (P0AE70 whole entry): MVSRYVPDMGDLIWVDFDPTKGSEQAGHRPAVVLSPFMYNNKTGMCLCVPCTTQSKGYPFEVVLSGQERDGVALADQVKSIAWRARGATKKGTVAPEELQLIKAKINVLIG

[10] = Luminescence-based cell-based high throughput dose response assay to identify activators of the DAF-12 from the parasite S. stercoralis (ssDAF-12).; type: functional
[11] = target: T5, Acyl-homoserine lactone acylase PvdQ (Pseudomonas aeruginosa (strain LESB58), UniProt Q9I194); assay: PvdQ acylase enzyme activity blockers – biochemical, fluorescence, plate reader and imaging, cherry-picks, dose response (AID 493231)
T5 sequence (Q9I194 whole entry): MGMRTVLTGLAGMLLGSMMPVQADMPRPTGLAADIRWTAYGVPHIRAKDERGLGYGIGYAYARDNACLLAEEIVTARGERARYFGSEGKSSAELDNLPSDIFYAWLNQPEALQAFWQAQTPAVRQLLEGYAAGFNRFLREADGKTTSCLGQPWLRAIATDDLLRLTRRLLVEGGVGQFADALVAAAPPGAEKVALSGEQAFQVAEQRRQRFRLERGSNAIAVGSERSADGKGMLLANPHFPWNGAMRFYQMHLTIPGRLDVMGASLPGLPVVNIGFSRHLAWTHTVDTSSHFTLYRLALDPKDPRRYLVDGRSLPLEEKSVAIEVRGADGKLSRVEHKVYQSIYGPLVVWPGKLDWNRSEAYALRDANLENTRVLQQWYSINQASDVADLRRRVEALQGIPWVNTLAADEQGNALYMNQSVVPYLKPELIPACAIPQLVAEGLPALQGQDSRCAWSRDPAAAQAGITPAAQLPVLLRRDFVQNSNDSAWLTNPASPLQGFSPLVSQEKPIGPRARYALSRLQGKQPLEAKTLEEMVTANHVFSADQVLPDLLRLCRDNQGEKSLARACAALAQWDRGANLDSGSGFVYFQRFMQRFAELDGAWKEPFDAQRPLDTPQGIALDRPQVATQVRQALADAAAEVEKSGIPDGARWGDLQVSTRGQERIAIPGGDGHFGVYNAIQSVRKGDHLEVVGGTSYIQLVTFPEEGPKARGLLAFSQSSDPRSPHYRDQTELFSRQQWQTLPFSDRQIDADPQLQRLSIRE

[12] = target: T4, Endoribonuclease toxin MazF; assay: activation of MazEF endoribonuclease cleavage – biochemical, fluorescence, single-stranded RNA substrate, uHTS hits, dose response (AID 588481); type: functional
Protein skinhead-1 = target: T6, Protein skinhead-1 (Caenorhabditis elegans, UniProt P34707); type: functional
T6 sequence (P34707 whole entry): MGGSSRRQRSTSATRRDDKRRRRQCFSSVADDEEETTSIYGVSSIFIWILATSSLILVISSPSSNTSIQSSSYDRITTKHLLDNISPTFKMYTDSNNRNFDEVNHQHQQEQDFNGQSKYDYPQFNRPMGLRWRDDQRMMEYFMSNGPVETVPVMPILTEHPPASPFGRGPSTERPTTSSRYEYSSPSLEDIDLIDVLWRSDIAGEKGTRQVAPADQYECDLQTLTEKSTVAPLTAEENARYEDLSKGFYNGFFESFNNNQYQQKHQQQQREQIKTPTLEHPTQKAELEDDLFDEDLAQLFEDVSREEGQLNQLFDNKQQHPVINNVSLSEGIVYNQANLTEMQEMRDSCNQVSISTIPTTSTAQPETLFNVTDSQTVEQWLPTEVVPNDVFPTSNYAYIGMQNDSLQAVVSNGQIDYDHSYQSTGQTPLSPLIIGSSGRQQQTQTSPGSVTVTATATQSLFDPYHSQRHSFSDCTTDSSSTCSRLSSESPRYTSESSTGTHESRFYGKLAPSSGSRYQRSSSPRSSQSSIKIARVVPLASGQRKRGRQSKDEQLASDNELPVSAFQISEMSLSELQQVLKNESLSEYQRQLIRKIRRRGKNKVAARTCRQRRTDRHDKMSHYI

HeLa = assay: toxicity to human HeLa cells – cell-based, 48 h, plate reader, cherry-picks, cytotoxicity control, dose response (AID 504942); type: functional
[13] = target: T7, Oxysterols receptor LXR-beta (Homo sapiens, UniProt P55055); assay: LXR agonists, Gal4 luciferase reporter, dose response, counter-screen for ssDAF-12 agonist project, cell-based, luminescence, HEK293, S. stercoralis campaign (AID 720737); type: functional; conditions: read-out: IC50 (the source's name)
T7 sequence (P55055 whole entry): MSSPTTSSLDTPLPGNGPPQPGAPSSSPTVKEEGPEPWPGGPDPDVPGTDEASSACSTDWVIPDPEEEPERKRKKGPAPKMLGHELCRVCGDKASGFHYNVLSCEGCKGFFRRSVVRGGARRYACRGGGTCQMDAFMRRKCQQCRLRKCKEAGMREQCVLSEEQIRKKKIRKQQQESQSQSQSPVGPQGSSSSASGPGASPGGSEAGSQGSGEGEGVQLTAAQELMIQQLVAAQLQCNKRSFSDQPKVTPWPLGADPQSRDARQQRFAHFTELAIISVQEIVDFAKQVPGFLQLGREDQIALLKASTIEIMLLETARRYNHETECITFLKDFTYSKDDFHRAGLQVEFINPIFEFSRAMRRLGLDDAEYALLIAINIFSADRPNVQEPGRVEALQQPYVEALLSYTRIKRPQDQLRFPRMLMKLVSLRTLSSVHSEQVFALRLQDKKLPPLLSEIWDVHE

Cc1cccc(/C=C/c2nc3ccccc3c(=O)n2Cc2ccccc2)c1
IC50 (Hexokinase HKDC1): > 80 µM (inactive)
IC50 (Hexokinase-1): > 80 µM (inactive)

COC(=O)c1cccc(Nc2c3c(nc4ccccc24)CCC3)c1
EC50 (BJ [1]): > 150 µM (inconclusive)
EC50 (BJ [2]): 18.2 µM (active)
EC50 (BJ [3]): 28.4 µM (active)
EC50 [4]: 19.2 µM (active)
EC50 (BJ [5]): > 133 µM (inactive)
EC50 [6]: 2.11 µM (active)

Cc1ccc(C)c(NC(=O)c2ccc([N+](=O)[O-])o2)c1
IC50 (HEK293 [7]): > 80 µM (inactive)
IC50 (HEK293 [8]): 46.6 µM (inactive)
IC50 (Jurkat): 14.1 µM (active)

N#C/C(=C/c1ccco1)c1nc2ccccc2s1
EC50 [9]: 54.8 µM (inactive)
IC50 [10]: > 67.5 µM (inactive)
AC50 [11]: 12.5 µM (active)
EC50 [12]: 23.7 µM (inactive)
IC50 (Protein skinhead-1): > 100 µM (inactive)
AC50 (HeLa): 53.7 µM (active)
EC50 [13]: > 67.5 µM (inactive)
